# Data as given in PubChem BioAssay AID1963838 (Molecular Pharmacology Branch, DTP, NCI, 2024).
# Tested on: 855422-203-R-J1-PDC complex spheroid viability
# Assay: Anticancer human tumor 855422-203-R-J1-PDC patient-derived bladder carcinoma cell line growth inhibition [POLQ]
# Conditions: for IC50: curve of first compound; for viability, T/C: stronger effect = lower value
# Description: Multicellular complex tumor spheroid response to Polymerase (POL) inhibitors (novobiocin, ART-558, RP6685) in combination with a variety of drugs and investigational agents in selected tumor cell lines
# The POL inhibitors (novobiocin, ART-558, and RP6685) were evaluated both individually and in combination with standard of care and investigational anticancer small molecules within a complex spheroid model of solid tumors. . Complex spheroids include a stromal component modeled by human endothelial cells (HUVEC) and fibroblasts modeled by human mesenchymal stem cells (MSCs). The concentration ranges selected for each drug and investigational agent were based upon clinically achievable concentrations if the clinical Cmax of the agent was known.
# Compounds. The drugs and investigational agents: novobiocin (NSC847541), ART-558 (NSC835418), RP-6685 (NSC848927), peposertib (NSC802822), ceralasertib (NSC780249), elimusertib (NSC800525), camonsertib (NSC841442), AZD-1390 (NSC803789), olaparib (NSC753686), talazoparib (NSC767125), rucaparib (NSC756644), sotorasib (NSC818433), MRTX-1133 (NSC836407), SN-38 (NSC673596), topotecan (NSC609699), epotoside (NSC141540), doxorubicin (NSC123127), gemcitabine (NSC613327), 5-fluorouracil (NSC19893), paclitaxel (NSC125973), vemurafenib (NSC761431), MSA-2 (NSC828583), SN-011 (NSC837082), adavosertib (NSC754352), prexasertib (NSC758257), carboplatin (NSC241240) and oxaliplatin (NSC266046), were obtained from the National Cancer Institute (NCI) Developmental Therapeutics Program Chemical Repository (21). The FDA-approved anticancer drug set is available from the Developmental Therapeutics Program at https://dtp.cancer.gov/organization/dscb/obtaining/. […] The stock solutions were prepared in dimethyl sulfoxide (DMSO, Sigma-Aldrich, St. Louis, MO, cat. D2650), except for the platinum compounds which were prepared in saline (Quality Biological, Gaithersburg, MD, cat. 114-055-101), at 800-fold the tested concentration and stored at -70 degrees C prior to their use. All drugs and investigational agents were tested over a range starting from a high concentration at or near the clinical Cmax and decreasing in half-log increments. If the clinical Cmax for an agent had not been determined, the highest concentration tested was 10 microM, except for SN-38, which was tested at a high concentration of 1 microM.
# Cell Culture. All cells were maintained in an incubator at 37 degrees C and 5% CO2 with 95% humidity. The PDC lines were cultured according to standard operating procedures established by the NCI PDMR (https://pdmr.cancer.gov). Table 3 of the manuscript, lists the cell lines along with the number of the three cell types plated to form the mct-spheroids and media for tumor cell growth. After thawing, all PDC lines, except 997537-175-T-J1-PDC and 415267-285-R-J2-PDC, were cultured in Matrigel-coated flasks prepared with a working solution of 1X Ham's F-12 nutrient mix, without supplementation (Thermo Fisher Scientific, cat. 11765054), 100 U/mL penicillin-streptomycin (Thermo Fisher Scientific, cat. 15140122), and 2.5% Matrigel (Corning Inc., Corning, NY, cat. 354248) for the first three passages. The two PDC lines 997537-175-T-J1-PDC and 415267-285-R-J2-PDC were cultured on uncoated flasks. The 857933-349-R-J2-PDC line was cultured in 6C/Colon 1B media containing advanced DMEM/F-12 (Thermo Fisher Scientific, cat. 12634028), 10 mM HEPES (Thermo Fisher Scientific, cat. 15630080), 1X GlutaMAX supplement (Thermo Fisher Scientific, cat. 35050061), 0.1 mg/mL primocin (InvivoGen, San Diego, CA, cat. ant-pm-2), 10% defined fetal bovine serum, heat inactivated (HyClone Laboratories Inc., Logan, UT, cat. SH30070.03HI), 50% L-WRN conditioned media (ATCC, cat. CRL-3276), 1.25 mM N-Acetyl-L-cysteine (Sigma-Aldrich, cat. A9165), 10 mM nicotinamide (Sigma-Aldrich, cat. N0636), 1X B-27 supplement (Thermo Fisher Scientific, cat. 17504044), 1X N-2 supplement (Thermo Fisher Scientific, cat. […]
# [1] = second compound 0.0316 µM, first compound 0.0316 µM
# [2] = second compound 0.0316 µM, first compound 0.1 µM
# [3] = second compound 0.0316 µM, first compound 0.316 µM
# [4] = second compound 0.0316 µM, first compound 1 µM
# [5] = second compound 0.0316 µM, first compound 3.16 µM
# [6] = second compound 0.0316 µM, first compound 10 µM
# [7] = second compound 0.1 µM, first compound 0.0316 µM
# [8] = second compound 0.1 µM, first compound 0.1 µM
# [9] = second compound 0.1 µM, first compound 0.316 µM
# [10] = second compound 0.1 µM, first compound 1 µM
# [11] = second compound 0.1 µM, first compound 3.16 µM
# [12] = second compound 0.1 µM, first compound 10 µM
# [13] = second compound 0.316 µM, first compound 0.0316 µM
# [14] = second compound 0.316 µM, first compound 0.1 µM
# [15] = second compound 0.316 µM, first compound 0.316 µM
# [16] = second compound 0.316 µM, first compound 1 µM
# [17] = second compound 0.316 µM, first compound 3.16 µM
# [18] = second compound 0.316 µM, first compound 10 µM
# [19] = second compound 1 µM, first compound 0.0316 µM
# [20] = second compound 1 µM, first compound 0.1 µM
# [21] = second compound 1 µM, first compound 0.316 µM
# [22] = second compound 1 µM, first compound 1 µM
# [23] = second compound 1 µM, first compound 3.16 µM
# [24] = second compound 1 µM, first compound 10 µM
# [25] = second compound 3.16 µM, first compound 0.0316 µM
# [26] = second compound 3.16 µM, first compound 0.1 µM
# [27] = second compound 3.16 µM, first compound 0.316 µM
# [28] = second compound 3.16 µM, first compound 1 µM
# [29] = second compound 3.16 µM, first compound 3.16 µM
# [30] = second compound 3.16 µM, first compound 10 µM
# [31] = second compound 10 µM, first compound 0.0316 µM
# [32] = second compound 10 µM, first compound 0.1 µM
# [33] = second compound 10 µM, first compound 0.316 µM
# [34] = second compound 10 µM, first compound 1 µM
# [35] = second compound 10 µM, first compound 3.16 µM
# [36] = second compound 10 µM, first compound 10 µM
# 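Further: spheroids exposed to compounds for seven days before readout.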
smiles,measurement,setting,value
CCCS(=O)(=O)Nc1ccc(F)c(C(=O)c2c[nH]c3ncc(-c4ccc(Cl)cc4)cc23)c1F + Cc1cccc(N(C)C(=O)C2C(O)CCN2c2nc(C)cc(C(F)(F)F)c2C#N)c1,IC50,second compound 0.0316 µM,6.14 µM
same,IC50,second compound 0.1 µM,6.18 µM
same,IC50,second compound 0.316 µM,6.52 µM
same,IC50,second compound 1 µM,6.04 µM
same,IC50,second compound 3.16 µM,6.48 µM
same,IC50,second compound 10 µM,6.72 µM
same,"viability, T/C",[1],104%
same,"viability, T/C",[2],131%
same,"viability, T/C",[3],99.9%
same,"viability, T/C",[4],104%
same,"viability, T/C",[5],109%
same,"viability, T/C",[6],6.85%
same,"viability, T/C",[7],98%
same,"viability, T/C",[8],119%
same,"viability, T/C",[9],99%
same,"viability, T/C",[10],103%
same,"viability, T/C",[11],121%
same,"viability, T/C",[12],8.21%
same,"viability, T/C",[13],103%
same,"viability, T/C",[14],125%
same,"viability, T/C",[15],101%
same,"viability, T/C",[16],110%
same,"viability, T/C",[17],115%
same,"viability, T/C",[18],14.1%
same,"viability, T/C",[19],97%
same,"viability, T/C",[20],111%
same,"viability, T/C",[21],96%
same,"viability, T/C",[22],107%
same,"viability, T/C",[23],123%
same,"viability, T/C",[24],5.7%
same,"viability, T/C",[25],97.8%
same,"viability, T/C",[26],133%
same,"viability, T/C",[27],139%
same,"viability, T/C",[28],127%
same,"viability, T/C",[29],128%
same,"viability, T/C",[30],4.79%
same,"viability, T/C",[31],109%
same,"viability, T/C",[32],134%
same,"viability, T/C",[33],139%
same,"viability, T/C",[34],180%
same,"viability, T/C",[35],142%
same,"viability, T/C",[36],2.01%
CNCc1ccc(-c2[nH]c3cc(F)cc4c3c2CCNC4=O)cc1 + Cc1cccc(N(C)C(=O)C2C(O)CCN2c2nc(C)cc(C(F)(F)F)c2C#N)c1,IC50,second compound 0.0316 µM,> 10 µM
same,IC50,second compound 0.1 µM,> 10 µM
same,IC50,second compound 0.316 µM,> 10 µM
same,IC50,second compound 1 µM,> 10 µM
same,IC50,second compound 3.16 µM,> 10 µM
same,IC50,second compound 10 µM,> 10 µM
same,"viability, T/C",[1],115%
same,"viability, T/C",[2],101%
same,"viability, T/C",[3],99.2%
same,"viability, T/C",[4],104%
same,"viability, T/C",[5],114%
same,"viability, T/C",[6],108%
same,"viability, T/C",[7],101%
same,"viability, T/C",[8],101%
same,"viability, T/C",[9],90.5%
same,"viability, T/C",[10],107%
same,"viability, T/C",[11],111%
same,"viability, T/C",[12],106%
same,"viability, T/C",[13],107%
same,"viability, T/C",[14],115%
same,"viability, T/C",[15],112%
same,"viability, T/C",[16],103%
same,"viability, T/C",[17],113%
same,"viability, T/C",[18],120%
same,"viability, T/C",[19],101%
same,"viability, T/C",[20],105%
same,"viability, T/C",[21],101%
same,"viability, T/C",[22],103%
same,"viability, T/C",[23],114%
same,"viability, T/C",[24],105%
same,"viability, T/C",[25],112%
same,"viability, T/C",[26],108%
same,"viability, T/C",[27],118%
same,"viability, T/C",[28],98.8%
same,"viability, T/C",[29],108%
same,"viability, T/C",[30],111%
same,"viability, T/C",[31],110%
same,"viability, T/C",[32],95.6%
same,"viability, T/C",[33],100%
same,"viability, T/C",[34],104%
same,"viability, T/C",[35],116%
same,"viability, T/C",[36],107%
